Source: PubChem BioAssay (NCI)
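Results reflect a 48-hour exposure of cells in 96-well plates to compound at five concentrations. TGI marks complete inhibition of growth.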

Experiments:
Test in all cases: inhibition of tumour cell growth, NCI panel, 48 h
[1] = test system: 786-0 renal
[2] = test system: DU-145 prostate
[3] = test system: HCT-15 colon
[4] = test system: K-562 leukemia
[5] = test system: LOX IMVI melanoma
[6] = test system: NCI-H23 lung
[7] = test system: NCI-H460 lung
[8] = test system: RPMI-8226 leukemia
[9] = test system: SF-295 CNS
[10] = test system: SK-MEL-2 melanoma

SMILES | TGI [1] [µM] | TGI [2] [µM] | TGI [3] [µM] | TGI [4] [µM] | TGI [5] [µM] | TGI [6] [µM] | TGI [7] [µM] | TGI [8] [µM] | TGI [9] [µM] | TGI [10] [µM]
CN1C(=O)C2(C=CC(O)CC2)c2ccccc21 (stereo not given) | > 100 | > 100 | > 100 | > 100 | > 100 | > 100 | > 100 | > 100 | > 100 | > 100
CN(C)CCn1c(=O)c2ccc(NCCN3CCNCC3)c3c(=O)c4ccccc4n(c1=O)c23 | 14.1 | 17.7 | 25.3 | 6.85 | 11.9 | 16.8 | 12 | 2.93 | 18 | 8.72
O=c1c2cc3c(=O)n4c(cc(-c5ccccc5)c5cc(Cl)ccc54)nc3cc2nc2cc(-c3ccccc3)c3cc(Cl)ccc3n12 | > 100 | > 100 | > 100 | > 100 | > 100 | > 100 | > 100 | > 100 | > 100 | > 100
Cc1cc(Cc2cc(C)c(NC(=O)C(=O)C3CCC4=C(SC5C=CC=CC5N4)C3=O)c(C(C)C)c2)cc(C(C)C)c1NC(=O)C(=O)C1CCC2=C(SC3C=CC=CC3N2)C1=O (stereo not given) | > 100 | > 100 | > 100 | > 100 | > 100 | > 100 | > 100 | > 100 | > 100 | > 100
COc1ccc(N2C(=O)C3c4[nH]c5ccc(Br)cc5c4C4CCC(C(C)(C)C)CC4C3C2=O)cc1 (stereo not given) | > 100 | > 100 | > 100 | > 100 | > 100 | > 100 | > 100 | > 100 | > 100 | > 100
Cn1c(=O)c2c(nc3n2CCCC(=O)N3CC(O)CCl)n(C)c1=O (stereo not given) | > 100 | > 100 | > 100 | > 100 | > 100 | > 100 | > 100 | > 100 | > 100 | > 100
NC(=O)Cc1nc2c(N)ncnc2n1C1OC(CO)C(O)C1O (stereo not given) | > 100 | > 100 | > 100 | > 100 | > 100 | > 100 | > 100 | > 100 | > 100 | > 100
CCOC(=O)C(Cc1ccc(OC(=O)c2ccc(OC)cc2)cc1)NC(=O)C(F)(F)F (stereo not given) | > 100 | > 100 | > 100 | > 100 | > 100 | > 100 | > 100 | > 100 | > 100 | > 100
O=c1[nH]nc(-c2ccccc2)n1/N=C/c1cccs1 | > 100 | > 100 | > 100 | > 100 | > 100 | > 100 | > 100 | > 100 | > 100 | > 100
CC1(C)Cc2nc3c(cc2C(=O)C1C=N/C(C#N)=C(\N)C#N)C(=O)C(C=N/C(C#N)=C(\N)C#N)C(C)(C)C3 (stereo not given) | 3.47 | 8.44 | 4.48 | > 100 | 5.7 | 7.36 | 8.21 | > 27.7 | 7.56 | 4.69
CC(C)C(=O)Nc1cc(C(F)(F)F)ccc1[N+](=O)[O-] | > 100 | > 100 | > 100 | > 100 | > 100 | > 100 | > 100 | > 100 | > 100 | > 100
NC(=O)NCCCC(NC(=O)OCCCCCCn1ccc(=O)[nH]c1=O)C(=O)O (stereo not given) | > 100 | > 100 | > 100 | > 100 | > 100 | > 100 | > 100 | > 100 | > 100 | > 100
COc1ccc(CCCNC(=O)c2cc(OC)c(OC)cc2CCO)cc1OC | > 100 | > 100 | > 100 | > 100 | > 100 | > 100 | > 100 | > 100 | > 100 | > 100
O=[N+]([O-])C(=C(N1CCOCC1)N1CCOCC1)/C(Cl)=C(\Cl)Br | 58.4 | > 100 | 28.9 | 60.2 | 41.1 | 34.1 | > 100 | 33.5 | > 100 | 44.8
COc1cc(NCCC2CCCCN2)c2ncccc2c1 (stereo not given) | > 100 | > 100 | > 100 | > 66.3 | > 100 | > 100 | > 100 | > 68.1 | > 100 | > 91.1
O=C1C2=C(CC3=C(C2)CS(=O)(=O)C3)C(=O)C2=C1CC1=C(C2)CS(=O)(=O)C1 | 40.6 | > 87 | > 100 | > 39.1 | > 59.9 | 48.4 | > 100 | 55.5 | 44.9 | > 75.2
COc1ccc(/C=C2\CCS(=O)(=O)c3ccccc3C2=O)cc1 | 34.6 | 61 | 43.1 | > 100 | 40.4 | 47.6 | 57 | 61 | 98.9 | 96.4
CCOC(=O)C1(C(=O)OCC)OC(C)=NC1(C(=O)OC)C(=O)OC | > 100 | > 100 | > 100 | > 100 | > 100 | > 100 | > 100 | > 24.6 | > 100 | > 100

SMILES | TGI [1] [µM] | TGI [2] [µM] | TGI [3] [µM] | TGI [4] [µM] | TGI [5] [µM] | TGI [6] [µM] | TGI [7] [µM] | TGI [8] [µM] | TGI [9] [µM] | TGI [10] [µM]
CC(C)=CC(Cc1ccccc1)S(=O)(=O)c1nc2ccccc2s1 (stereo not given) | 33.1 | 31.5 | 49.5 | 33.4 | 11.9 | 48.8 | 50.1 | 35 | 66.6 | 28.5
CC(=O)OCC1OC(Nn2c(=O)[nH]c3ccccc3c2=O)C(OC(C)=O)C(OC(C)=O)C1OC(C)=O (stereo not given) | > 100 | > 100 | > 100 | > 100 | > 100 | > 100 | > 100 | > 100 | > 100 | > 100
CC1SCc2nc3ccccc3n21 (stereo not given) | > 100 | > 100 | > 100 | > 100 | > 100 | > 100 | > 100 | > 100 | > 100 | > 100
N#CC(=N)c1ncn(-c2ccc(N)cc2)c1N | > 100 | > 100 | > 100 | > 100 | > 100 | > 100 | > 100 | > 100 | > 100 | > 100
CCOC(=O)C1c2[nH]c3ccccc3c2CCN1C(=O)c1ccc(OC)o1 (stereo not given) | > 10 | > 10 | > 10 | > 10 | > 10 | > 10 | > 10 | > 10 | > 10 | > 10
COc1ccccc1C1ON=C(c2ccc([N+](=O)[O-])cc2)N1C12CC3CC(CC(C3)C1)C2 (stereo not given) | > 100 | > 100 | > 100 | > 100 | > 100 | > 100 | > 100 | > 100 | > 100 | > 100
CC(C)[C@H](NC(=O)[C@H](N)Cc1ccc(N(CCCl)CCCl)cc1)C(=O)O | > 100 | > 100 | > 100 | > 100 | > 100 | > 100 | > 100 | > 100 | > 100 | > 100
COC(=O)c1cc(C(=CCC[C@H]2CC[C@@]3(C)C(CCC4C3CC[C@@]3(C)C4CC[C@@H]3C(C)CCCC(C)C)C2)c2cc(Cl)c(O)c(C(=O)OC)c2)cc(Cl)c1O (stereo not given in full) | > 10 | > 10 | > 10 | > 10 | > 10 | > 10 | > 10 | > 10 | > 10 | > 10
C/C=C(\C)C(O)C(C)C(O)C/C=C(C)/C=C(\C)C/C(C)=C/C/C=C(\C)C(O)C(C)c1ccc(CCC)c(=O)o1 (stereo not given) | 55.7 | 91.7 | 15.3 | > 100 | 28.3 | 26.1 | 22.7 | > 100 | 16.9 | 45
Cc1ccc(O)c(C2=CC(c3cccc(Cl)c3)SC(N)=N2)c1 (stereo not given) | > 100 | > 100 | 38.2 | 55.5 | 34.7 | 80.1 | 64 | 42.6 | 36.9 | 38.2
OC(c1ccc(C(F)(F)F)cc1)C(F)(F)c1nc2ccccc2o1 (stereo not given) | > 100 | > 100 | > 100 | > 100 | > 100 | > 100 | > 100 | > 100 | > 100 | > 100
COC(=O)C(Cc1c[nH]c2ccccc12)NC(=O)c1ccc(-c2ccc(Cl)cc2Cl)o1 (stereo not given) | > 100 | > 100 | > 100 | > 100 | > 100 | > 100 | > 100 | > 100 | > 100 | > 100
CC1(C)OC(=O)N(c2ccccc2)C12C=Cc1cccc([N+](=O)[O-])c1O2 (stereo not given) | > 100 | > 100 | > 100 | > 100 | > 100 | > 100 | > 100 | > 100 | > 100 | > 100
O=C(O)CCSCc1ccccc1 | > 100 | > 100 | > 100 | > 100 | > 100 | > 100 | > 100 | > 100 | > 100 | > 100
CN(C)C(c1ccccc1)C1COC2Cc3ccccc3C1O2 (stereo not given) | > 100 | > 100 | > 100 | > 100 | > 100 | > 100 | > 100 | > 100 | > 100 | > 100
COC(O)C(=O)c1ccc2c(c1)CC1(C2)Cc2cc3c(cc2C1=O)CCC3 (stereo not given) | 31.4 | 31.1 | 58 | 21.8 | 10.1 | 56.2 | 70.6 | 32.7 | 44.1 | 47.1
Cc1ccc(S(=O)(=O)Oc2nc3ccccc3nc2OS(=O)(=O)c2ccc(C)cc2)cc1 | > 100 | > 100 | > 100 | > 100 | > 100 | > 100 | > 100 | > 100 | > 100 | > 100
CC(C)=CCC/C(C)=C/CC/C(C)=C/CC/C(C)=C/CC/C(C)=C/CC/C(C)=C/CC/C(C)=C/CC/C(C)=C/CC/C(C)=C/CO | > 100 | > 100 | > 100 | > 100 | > 100 | > 100 | > 100 | > 100 | > 100 | > 100
